Experimental data as given in paper PMC12724200 (mSphere, 2025).

What follows are compounds tested on M. bovis BCG.
Assay type: cell-based, Mycobacterium bovis BCG

Structure (SMILES) | Frequency of spontaneously generated drug-resistant colonies
CC[C@@H](CO)NCCN[C@@H](CC)CO [EB, ethambutol] | 4.5 × 10^−6
NNC(=O)c1ccncc1 [INH, isoniazid] | 2.0 × 10^−6
NC[C@H]1O[C@H](O[C@H]2[C@H](O)[C@@H](O[C@H]3O[C@H](CO)[C@@H](O)[C@H](N)[C@H]3O)[C@H](N)C[C@@H]2N)[C@H](O)[C@@H](O)[C@@H]1O [KM, kanamycin] | 6.3 × 10^−6
CO[C@H]1/C=C/O[C@@]2(C)Oc3c(C)c(O)c4c(O)c(c(/C=N/N5CCN(C)CC5)c(O)c4c3C2=O)NC(=O)/C(C)=C\C=C\[C@H](C)[C@H](O)[C@@H](C)[C@@H](O)[C@@H](C)[C@H](OC(C)=O)[C@@H]1C [RFP, rifampicin] | 5.2 × 10^−9
[H]/N=C(/N)N[C@H]1[C@H](O)[C@@H](O)[C@H](O[C@@H]2O[C@@H](C)[C@](O)(C=O)[C@H]2O[C@@H]2O[C@@H](CO)[C@H](O)[C@@H](O)[C@@H]2NC)[C@@H](N/C(N)=N\[H])[C@@H]1O [SM, streptomycin] | 3.1 × 10^−7
